What was measured:
[1] = M4N stability in HP-β-CD/PEG 300 buffer solutions at 60° C. (RP-HPLC, pH); format: physicochemical; conditions: for M4N concentration (stability): 25% PEG300
Experimental: The stability of 10 mg/mL M4N (prepared in a ratio of 75:25 40% HP-β-CD: 40 mg/mL M4N PEG 300) in 15 mM buffer solutions was evaluated following incubation at 60° C.
2.0 g HP-β-CD was weighed into 5 mL volumetric flasks on an OHAUS Analytical Plus Balance. 1 mL of a 100 mM buffer solution was added to each flask. Each sample was q.s. to 5 mL with WFI.
750 μL 40% HP-β-CD buffered solution was placed in 1.5 mL polypropylene microtubes. […] After gentle inversion of the sample tubes, the pH of each solution was measured using a Orion, Model 420A pH meter. An initial aliquot was removed for RP-HPLC analysis. Test samples were then placed in a Precision 60° C. incubator. The M4N stability was evaluated by RP-HPLC. At each time point, the samples were centrifuged for 2 minutes at 13,000 rpm to pellet any solid M4N.

[2] = 7-Day intravenous infusion study in Beagle dogs: toxicokinetic serum analysis; format: in vivo
Experimental: This study was conducted to evaluate the toxicokinetic profile of M4N formulated in 30% HP-β-CD and 25% PEG 300 when administered as a single intravenous infusion dose for seven consecutive days in beagle dogs. This study constitutes the first study of this particular formulation of M4N in dogs and was executed to evaluate the toxicity and compare tolerability of a diluted formulation (10 mg/mL versus 5 mg/mL).
A total of twelve beagle dogs (8 male/4 female) were dosed with M4N via a 54-minute (Group 2) or 108-minute (Groups 1, 3 and 4) intravenous infusion. All animals received seven doses, one per day over seven consecutive days.
The following parameters were evaluated: clinical observations and body weights. Test article analysis was performed on Study Days 1 and 7, blood samples (targeting a volume of 2.0 mL) were collected from each animal from an appropriate vessel at the following time points: […]

Beagle dogs = conditions: dog, in vivo
Experimental: A single male dog was administered M4N (12.5 mg/mL) in 20% HP-β-CD/50% PEG 300 via IV infusion (10 mL/kg/hour). Increased pressure in the infusion line and test formulation leakage from the syringe occurred. […] Because the observations were considered severe, the animal was considered moribund and scheduled for euthanization.
The dog recovered within 1 hour and 15 minutes of dosing and presented no continued or additional adverse clinical signs.
An additional male and female were dosed at 150 mg/kg and then at 125 mg/kg. […] Both animals recovered within 1 hour of dosing and no additional important clinical signs were subsequently noted.
Two extra (naïve) dogs were added to the study design and dosed at 75 mg/kg/day at an infusion rate of 5 mL/kg/hour, for a total of 12 doses in a 13-day interval. […] Clinical observations included soft feces in the male and frothy white emesis in the female; these findings were infrequent or isolated incidences and are considered unrelated to treatment. […] Both dogs recovered from any noted clinical signs within 1 hour of dosing. […] No other treatment-related observations were noted.

COc1ccc(C[C@@H](C)[C@@H](C)Cc2ccc(OC)c(OC)c2)cc1OC [Formulation M4N, meso-1,4-bis(3,4-dimethoxyphenyl)-2,3-dimethylbutane]
change in concentration of M4N solutions ([1]; 10 mg/mL M4N in HP-β-CD/PEG 300, 15 mM buffers, 14 day incubation at 60° C.): slight decrease | M4N concentration (stability) ([1]; 15 mM Acetate, pH 5, 30% HP-β-CD, 0 days at 60° C.): 10.6 mg/mL | M4N concentration (stability) ([1]; 15 mM Acetate, pH 5, 30% HP-β-CD, 2 days at 60° C.): 10.2 mg/mL | M4N concentration (stability) ([1]; 15 mM Acetate, pH 5, 30% HP-β-CD, 6 days at 60° C.): 9.6 mg/mL | M4N concentration (stability) ([1]; 15 mM Acetate, pH 5, 30% HP-β-CD, 10 days at 60° C.): 9.7 mg/mL | M4N concentration (stability) ([1]; 15 mM Acetate, pH 5, 30% HP-β-CD, 14 days at 60° C.): 9.6 mg/mL | M4N concentration (stability) ([1]; 15 mM Acetate, pH 6, 30% HP-β-CD, 0 days at 60° C.): 10.5 mg/mL | M4N concentration (stability) ([1]; 15 mM Acetate, pH 6, 30% HP-β-CD, 2 days at 60° C.): 10.1 mg/mL | M4N concentration (stability) ([1]; 15 mM Acetate, pH 6, 30% HP-β-CD, 6 days at 60° C.): 9.7 mg/mL | M4N concentration (stability) ([1]; 15 mM Acetate, pH 6, 30% HP-β-CD, 10 days at 60° C.): 9.7 mg/mL | M4N concentration (stability) ([1]; 15 mM Acetate, pH 6, 30% HP-β-CD, 14 days at 60° C.): 9.6 mg/mL | M4N concentration (stability) ([1]; 15 mM Borate, pH 10, 30% HP-β-CD, 0 days at 60° C.): 10.5 mg/mL | M4N concentration (stability) ([1]; 15 mM Borate, pH 10, 30% HP-β-CD, 2 days at 60° C.): 10.1 mg/mL | M4N concentration (stability) ([1]; 15 mM Borate, pH 10, 30% HP-β-CD, 6 days at 60° C.): 9.7 mg/mL | M4N concentration (stability) ([1]; 15 mM Borate, pH 10, 30% HP-β-CD, 10 days at 60° C.): 9.6 mg/mL | M4N concentration (stability) ([1]; 15 mM Borate, pH 10, 30% HP-β-CD, 14 days at 60° C.): 9.6 mg/mL | M4N concentration (stability) ([1]; 15 mM Borate, pH 11, 30% HP-β-CD, 0 days at 60° C.): 10.5 mg/mL | M4N concentration (stability) ([1]; 15 mM Borate, pH 11, 30% HP-β-CD, 2 days at 60° C.): 10.3 mg/mL | M4N concentration (stability) ([1]; 15 mM Borate, pH 11, 30% HP-β-CD, 6 days at 60° C.): 9.8 mg/mL | M4N concentration (stability) ([1]; 15 mM Borate, pH 11, 30% HP-β-CD, 10 days at 60° C.): 9.5 mg/mL | M4N concentration (stability) ([1]; 15 mM Borate, pH 11, 30% HP-β-CD, 14 days at 60° C.): 9.4 mg/mL | M4N concentration (stability) ([1]; 15 mM Phosphate, pH 3, 30% HP-β-CD, 0 days at 60° C.): 10.3 mg/mL | M4N concentration (stability) ([1]; 15 mM Phosphate, pH 3, 30% HP-β-CD, 2 days at 60° C.): 10.1 mg/mL | M4N concentration (stability) ([1]; 15 mM Phosphate, pH 3, 30% HP-β-CD, 6 days at 60° C.): 9.6 mg/mL | M4N concentration (stability) ([1]; 15 mM Phosphate, pH 3, 30% HP-β-CD, 10 days at 60° C.): 9.7 mg/mL | M4N concentration (stability) ([1]; 15 mM Phosphate, pH 3, 30% HP-β-CD, 14 days at 60° C.): 9.6 mg/mL | M4N concentration (stability) ([1]; 15 mM Phosphate, pH 4, 30% HP-β-CD, 0 days at 60° C.): 10.5 mg/mL | M4N concentration (stability) ([1]; 15 mM Phosphate, pH 4, 30% HP-β-CD, 2 days at 60° C.): 10.1 mg/mL | M4N concentration (stability) ([1]; 15 mM Phosphate, pH 4, 30% HP-β-CD, 6 days at 60° C.): 9.6 mg/mL | M4N concentration (stability) ([1]; 15 mM Phosphate, pH 4, 30% HP-β-CD, 10 days at 60° C.): 9.7 mg/mL | M4N concentration (stability) ([1]; 15 mM Phosphate, pH 4, 30% HP-β-CD, 14 days at 60° C.): 9.6 mg/mL | M4N concentration (stability) ([1]; 15 mM Phosphate, pH 7, 30% HP-β-CD, 0 days at 60° C.): 10.5 mg/mL | M4N concentration (stability) ([1]; 15 mM Phosphate, pH 7, 30% HP-β-CD, 2 days at 60° C.): 10.3 mg/mL | M4N concentration (stability) ([1]; 15 mM Phosphate, pH 7, 30% HP-β-CD, 6 days at 60° C.): 9.7 mg/mL | M4N concentration (stability) ([1]; 15 mM Phosphate, pH 7, 30% HP-β-CD, 10 days at 60° C.): 9.7 mg/mL | M4N concentration (stability) ([1]; 15 mM Phosphate, pH 7, 30% HP-β-CD, 14 days at 60° C.): 9.7 mg/mL | M4N concentration (stability) ([1]; 15 mM Phosphate, pH 8, 30% HP-β-CD, 0 days at 60° C.): 10.6 mg/mL | M4N concentration (stability) ([1]; 15 mM Phosphate, pH 8, 30% HP-β-CD, 2 days at 60° C.): 10.4 mg/mL | M4N concentration (stability) ([1]; 15 mM Phosphate, pH 8, 30% HP-β-CD, 6 days at 60° C.): 9.7 mg/mL | M4N concentration (stability) ([1]; 15 mM Phosphate, pH 8, 30% HP-β-CD, 10 days at 60° C.): 9.8 mg/mL | M4N concentration (stability) ([1]; 15 mM Phosphate, pH 8, 30% HP-β-CD, 14 days at 60° C.): 9.6 mg/mL | M4N concentration (stability) ([1]; 15 mM Phosphate, pH 9, 30% HP-β-CD, 0 days at 60° C.): 10.4 mg/mL | M4N concentration (stability) ([1]; 15 mM Phosphate, pH 9, 30% HP-β-CD, 2 days at 60° C.): 10.2 mg/mL | M4N concentration (stability) ([1]; 15 mM Phosphate, pH 9, 30% HP-β-CD, 6 days at 60° C.): 9.7 mg/mL | M4N concentration (stability) ([1]; 15 mM Phosphate, pH 9, 30% HP-β-CD, 10 days at 60° C.): 9.8 mg/mL | M4N concentration (stability) ([1]; 15 mM Phosphate, pH 9, 30% HP-β-CD, 14 days at 60° C.): 9.7 mg/mL | M4N impurities, share of total peak area ([1]; 14 day incubation at 60° C.): less than 0.1% | apparent sample pH during the incubation period ([1]; 14 days at 60° C.): Little if any changes | M4N concentration (stability) ([1]; WFI, 30% HP-β-CD, 0 days at 60° C.): 10.4 mg/mL | M4N concentration (stability) ([1]; WFI, 30% HP-β-CD, 2 days at 60° C.): 10.1 mg/mL | M4N concentration (stability) ([1]; WFI, 30% HP-β-CD, 6 days at 60° C.): 9.9 mg/mL | M4N concentration (stability) ([1]; WFI, 30% HP-β-CD, 10 days at 60° C.): 9.7 mg/mL | M4N concentration (stability) ([1]; WFI, 30% HP-β-CD, 14 days at 60° C.): 9.6 mg/mL | peak test article concentration in serum ([2]; Group 2, 45 mg/kg (10 mg/mL), 54-minute IV infusion): 33420 ng/mL | time of maximum concentration ([2]; Group 2, end of infusion): 0.9 h | peak test article concentration in serum ([2]; Group 3, 90 mg/kg (10 mg/mL), 108-minute IV infusion): 46704 ng/mL | peak test article concentration in serum ([2]; Group 4, 45 mg/kg (5 mg/mL), 108-minute IV infusion): 18759 ng/mL | time of maximum concentration ([2]; Groups 3 and 4, end of infusion): 1.8 h | clinical signs following dosing (Beagle dogs): uncoordinated/unbalanced movements and frequent urination | notable post dose observation (Beagle dogs): single observation of red-brown urine in the female on SD 7 | time to recovery after dosing (Beagle dogs): 1 h and 0.25 h
